Measured values from US7173004B2, “Macrocyclic isoquinoline peptide inhibitors of hepatitis C virus” (Bristol-Myers Squibb Company, priority 2003, dated 2007).
Counter-ions that a name gives are not always drawn.

Test system: HCV replicon (HCV 1b-377-neo replicon cells, Huh7)
Experiment: HCV replicon cell-based FRET assay
Conditions: Hepatitis C virus, Huh-7
Procedure: HCV Replion assays were utilized in the present invention, and were prepared, conducted and validated as follows:
An HCV replicon whole cell system was established as described by Lohmann V, Korner F, Koch J, Herian U, Theilmann L, Bartenschlager R., Science 285(5424): 110–3 (1999). This system enabled us to evaluate the effects of our HCV Protease compounds on HCV RNA replication. Briefly, using the HCV strain 1B sequence described in the Lohmann paper (Assession number: AJ238799), an HCV cDNA was synthesized by Operon Technologies, Inc. (Alameda, Calif.), and the full-length replicon was then assembled in plasmid pGem9zf(+) (Promega, Madison, Wis.) using standard molecular biology techniques. The replicon consists of (i) the HCV 5′ UTR fused to the first 12 amino acids of the capsid protein, (ii) the neomycin phosphotransferase gene (neo), (iii) the IRES from encephalomyocarditis virus (EMCV), and (iv) HCV NS3 to NS5B genes and the HCV 3′ UTR. Plasmid DNAs were linearized with ScaI and RNA transcripts were synthesized in vitro using the T7 MegaScript transcription kit (Ambion, Austin, Tex.) according to manufacturer's directions. To generate cell lines, 4×10^6 Huh-7 cells (kindly provided by R. Bartenschlager and available from Health Science Research Resources Bank, Japan Health Sciences Foundation) were electroporated (GenePulser System, Bio-Rad) with 10 microgram(“μg”) of RNA transcript and plated into 100-mm dishes. After 24 h, selective media containing 1.0 milligrams/milliliter (“mg/ml”) G418 was added and media was changed every 3 to 5 days. Approximately 4 weeks after electroporation, small colonies were visible which were isolated and expanded for further analysis. These cell lines were maintained at 37° C., 5% CO2, 100% relative humidity in DMEM (Cat# 11965-084) Gibco-BRL, Rockville, Md., with 10% heat inactivated calf serum (Sigma), 10 ml of 100× penicillin/streptomycin (Cat# 15140-122) Gibco-BRL, Rockville, Md., Geneticin (Cat# 10131-027) Gibco-BRL, Rockville, Md. at 1 mg/ml. One of the cell lines (deposited as ATCC Accession No. PTA-4583 in the American Type Culture Collection) which had approximately 3,000 copies of HCV replicon RNA/cell was used for development of the assay (HCV 1b-377-neo replicon cells).
Huh7 cells, constitutively expressing the HCV replicon, were grown in Dulbecco's Modified Eagle Media (DMEM) containing 10% Fetal calf serum (FCS) and 1 mg/ml G418 (Gibco-BRL). Cells were seeded the night before (1.5×10^4 cells/well) in 96-well tissue-culture sterile plates. Compound and no compound controls were prepared in DMEM containing 4% FCS, 1:100 Penicillin/Streptomysin, 1:100 L-glutamine and 5% DMSO in the dilution plate (0.5% DMSO final concentration in the assay). Compound/DMSO mixes were added to the cells and incubated for 4 days at 37° C. After 4 days, cells were first assessed for cytotoxicity using alamar Blue (Trek Diagnotstic Systems) for a CC50 reading. The toxicity of compound (CC50) was determined by adding 1/10th volume of alamar Blue to the media incubating the cells. After 4 hr, the fluorescence signal from each well was read, with an excitation wavelength at 530 nm and an emission wavelength of 580 nm, using the Cytofluor Series 4000 (Perspective Biosystems). Plates were then rinsed thoroughly with Phosphate-Buffered Saline (PBS) (3 times 150 μl). The cells were lysed with 25 μl of a lysis assay reagent containing an HCV protease substrate (5× cell Luciferase cell culture lysis reagent (Promega #E153A) diluted to 1× with distilled water, NaCl added to 150 mM final, the FRET peptide diluted to 10 μM final from a 2 mM stock in 100% DMSO). The HCV protease substrate (FRET peptide; AnaSpec, Inc. cat #22991, described by Taliani et al. in Anal. Biochem. 240(2):60–67 (1996)) contains a fluorescence donor, EDANS, near one end of the peptide and an acceptor, DABCYL, near the other end. […]

Row | Structure (SMILES) | EC50
1 | CC(C)(C)COC(=O)N[C@H]1CCCCC/C=C\[C@@H]2C[C@@]2(C(=O)NS(=O)(=O)C2CC2)NC(=O)[C@@H]2C[C@@H](Oc3nccc4ccccc34)CN2C1=O [Compound 13, [4-Cyclopropanesulfonylaminocarbonyl-18-(isoquinolin-1-yloxy)-2,15-dioxo-3,16-diaza-tricyclo[14.3.0.0^4,6]nonadec-7-en-14-yl]-carbamic acid 2,2-dimethyl-propyl ester] | < 50 nM
2 | COc1ccc2c(OC3CC4C(=O)NC5(C(=O)NS(=O)(=O)C6CC6)CC5C=CCCCSCC(NC(=O)OCC(C)(C)C)C(=O)N4C3)nccc2c1 (stereo not shown) [Compound 75] | < 50 nM
3 | CCC1(S(=O)(=O)NC(=O)C23CC2C=CCCCS(=O)(=O)CC(NC(=O)OC(C)(C)C)C(=O)N2CC(Oc4nccc5cc(OC)ccc45)CC2C(=O)N3)CC1 (stereo not shown) [Compound 48] | 50 to 500 nM
4 | COc1ccc2c(OC3CC4C(=O)NC5(C(=O)NS(=O)(=O)C6CC6)CC5C=CCOCCCC(NC(=O)NC5CCCC5)C(=O)N4C3)nccc2c1 (stereo not shown) [Compound 33] | < 50 nM
5 | O=C(N[C@H]1CCCCC/C=C\[C@@H]2C[C@@]2(C(=O)NS(=O)(=O)C2CC2)NC(=O)[C@@H]2C[C@@H](Oc3nccc4ccccc34)CN2C1=O)OC1CCOCC1 [Compound 14, [4-Cyclopropanesulfonylaminocarbonyl-18-(isoquinolin-1-yloxy)-2,15-dioxo-3,16-diaza-tricyclo[14.3.0.0^4,6]nonadec-7-en-14-yl]-carbamic acid tetrahydro-pyran-4-yl ester] | < 50 nM
6 | COc1ccc2c(OC3CC4C(=O)NC5(C(=O)NS(=O)(=O)C6(C)CC6)CC5C=CCCCOC(C)C(NC(=O)OC(C)(C)C)C(=O)N4C3)nccc2c1 (stereo not shown) [Compound 66] | 50 to 500 nM
7 | CC(C)(C)OC(=O)N[C@H]1CCCCC/C=C\[C@@H]2C[C@@]2(C(=O)NS(=O)(=O)C2CC2)NC(=O)[C@@H]2C[C@@H](Oc3nc(-c4ccccc4)cc4ccccc34)CN2C1=O [Compound 58, [(Z)-(1S,4R,14S,18R)-4-cyclopropanesulfonylaminocarbonyl-2,15-dioxo-18-(3-phenyl-isoquinolin-1-yloxy)-3,16-diaza-tricyclo[14.3.0.0^4,6]nonadec-7-en-14-yl]-carbamic acid tert-butyl ester] | < 50 nM
8 | COc1ccc2c(OC3CC4C(=O)NC5(C(=O)O)CC5C=CCCCCCC(NC(=O)OC(C)(C)C)C(=O)N4C3)nccc2c1 (stereo not shown) [Compound 17A] | 50 to 500 nM
9 | CC(C)(C)OC(=O)N[C@H]1CCCCCCC[C@@H]2C[C@@]2(C(=O)NS(=O)(=O)C2CC2)NC(=O)[C@@H]2C[C@@H](Oc3nccc4ccccc34)CN2C1=O [Compound 10, [4-Cyclopropanesulfonylaminocarbonyl-18-(isoquinolin-1-yloxy)-2,15-dioxo-3,16-diaza-tricyclo[14.3.0.0^4,6]nonadec-14-yl]-carbamic acid tert-butyl ester] | < 50 nM
10 | COc1ccc2c(OC3CC4C(=O)NC5(C(=O)NS(=O)(=O)C6CC6)CC5C=CCCCOC(C)C(NC(=O)NC5CCCC5)C(=O)N4C3)nccc2c1 (stereo not shown) [Compound 65] | < 50 nM
11 | N[C@H]1CCCCC/C=C\[C@@H]2C[C@@]2(C(=O)NS(=O)(=O)C2CC2)NC(=O)[C@@H]2C[C@@H](Oc3nccc4ccccc34)CN2C1=O [Compound 11, Cyclopropanesulfonic acid [14-amino-18-(isoquinolin-1-yloxy)-2,15-dioxo-3,16-diaza-tricyclo[14.3.0.0^4,6]nonadec-7-ene-4-carbonyl]-amide bis hydrochloride] | 50 to 500 nM
12 | CC(C)S(=O)(=O)NC(=O)[C@@]12C[C@H]1/C=C\CCCCC[C@H](NC(=O)OC(C)(C)C)C(=O)N1C[C@H](Oc3nccc4ccccc34)C[C@H]1C(=O)N2 [Compound 3, [18-(Isoquinolin-1-yloxy)-2,15-dioxo-4-(propane-2-sulfonylaminocarbonyl)-3,16-diaza-tricyclo-[14.3.0.0^4,6]nonadec-7-en-14-yl]-carbamic acid tert-butyl ester] | 50 to 500 nM
13 | CCC1(S(=O)(=O)NC(=O)C23CC2C=CCOCCCC(NC(=O)OC(C)(C)C)C(=O)N2CC(Oc4nccc5cc(OC)ccc45)CC2C(=O)N3)CC1 (stereo not shown) [Compound 30] | < 50 nM
14 | COc1ccc2c(OC3CC4C(=O)NC5(C(=O)NS(=O)(=O)C6(C)CC6)CC5C=CCCCCCC(NC(=O)OC(C)(C)C)C(=O)N4C3)nccc2c1 (stereo not shown) [Compound 53] | < 50 nM
15 | CCCC1(S(=O)(=O)NC(=O)[C@@]23C[C@H]2/C=C\CCCCC[C@H](NC(=O)OC(C)(C)C)C(=O)N2C[C@H](Oc4nccc5ccccc45)C[C@H]2C(=O)N3)CC1 [Compound 6, [18-(Isoquinolin-1-yloxy)-2,15-dioxo-4-(1-propyl-cyclopropanesulfonylaminocarbonyl)-3,16-diaza-tricyclo[14.3.0.0^4,6]nonadec-7-en-14-yl]-carbamic acid tert-butyl ester] | < 50 nM
16 | CC1(OC(=O)NC2CCCCCC=CC3CC3(C(=O)NS(=O)(=O)C3CC3)NC(=O)C3CC(Oc4nccc5ccccc45)CN3C2=O)CCCC1 (stereo not shown) [Compound 50] | < 50 nM
17 | CC1(OC(=O)NC2CCCCCC=CC3CC3(C(=O)NS(=O)(=O)C3CC3)NC(=O)C3CC(Oc4nccc5ccccc45)CN3C2=O)CC1 (stereo not shown) [Compound 59] | < 50 nM
18 | COc1ccc2c(OC3CC4C(=O)NC5(C(=O)NS(=O)(=O)C6(C)CC6)CC5C=CCCCSCC(NC(=O)OC(C)C)C(=O)N4C3)nccc2c1 (stereo not shown) [Compound 41] | < 50 nM
19 | CC(C)(C)OC(=O)N[C@H]1CCCCC/C=C\[C@@H]2C[C@@]2(C(=O)NS(=O)(=O)C2CCC2)NC(=O)[C@@H]2C[C@@H](Oc3nccc4ccccc34)CN2C1=O [Compound 9, [4-Cyclobutanesulfonylaminocarbonyl-18-(isoquinolin-1-yloxy)-2,15-dioxo-3,16-diaza-tricyclo[14.3.0.0^4,6]nonadec-7-en-14-yl]-carbamic acid tert-butyl ester] | < 50 nM
20 | CC(C)(C)OC(=O)NC1CSCCCC=CC2CC2(C(=O)NS(=O)(=O)C2CC2)NC(=O)C2CC(Oc3nccc4c(Cl)cccc34)CN2C1=O (stereo not shown) [Compound 78] | < 50 nM
21 | COc1ccc2c(OC3CC4C(=O)NC5(C(=O)NS(=O)(=O)C6CC6)CC5C=CCCCOC(C)C(NC(=O)OCC(C)(C)C)C(=O)N4C3)nccc2c1 (stereo not shown) [Compound 63] | 50 to 500 nM
22 | CC(C)OC(=O)N[C@H]1CCCCC/C=C\[C@@H]2C[C@@]2(C(=O)NS(=O)(=O)C2CC2)NC(=O)[C@@H]2C[C@@H](Oc3nccc4ccccc34)CN2C1=O [Compound 16, [4-Cyclopropanesulfonylaminocarbonyl-18-(isoquinolin-1-yloxy)-2,15-dioxo-3,16-diaza-tricyclo[14.3.0.0^4,6]nonadec-7-en-14-yl]-carbamic acid isopropyl ester] | < 50 nM
23 | CC(C)(C)OC(=O)N[C@H]1CCCCC/C=C\[C@@H]2C[C@@]2(C(=O)O)NC(=O)[C@@H]2C[C@@H](Oc3nccc4ccccc34)CN2C1=O [Compound 1, 14-tert-Butoxycarbonylamino-18-(isoquinolin-1-yloxy)-2,15-dioxo-3,16-diaza-tricyclo[14.3.0.0^4,6]nonadec-7-ene-4-carboxylic acid] | 500 to 5000 nM
24 | COc1ccc2c(OC3CC4C(=O)NC5(C(=O)NS(=O)(=O)C6(C)CC6)CC5C=CCOCCCC(NC(=O)NC5CCCC5)C(=O)N4C3)nccc2c1 (stereo not shown) [Compound 36] | < 50 nM
25 | CCC1(S(=O)(=O)NC(=O)C23CC2C=CCCCOC(C)C(NC(=O)OCC(C)(C)C)C(=O)N2CC(Oc4nccc5cc(OC)ccc45)CC2C(=O)N3)CC1 (stereo not shown) [Compound 71] | 50 to 500 nM
